This note sets out measurements from ChEMBL document CHEMBL5518238, “Structure-Activity Relationship (SAR) Studies of Novel Monovalent AR/AR-V7 Dual Degraders with Potent Efficacy against Advanced Prostate Cancer” (J Med Chem, 2024).

SMILES strings stand for the structures. Calls of active or inactive are those of the source. No cut-off for these calls is given here. Bounds are passed on as bounds.

The test system of data set [1] is CWR22R. Kind of data set: cells. The class given is functional, cell-based. The settings on record: Homo sapiens, 22Rv1, 48 h.
Description: Antiproliferative activity against AR/AR-V7 positive human 22Rv1 cells assessed as inhibition of cell growth incubated for 48 hrs by CCK-8 assay
A further data set deals with DU-145. The data set is described as follows: Antiproliferative activity against AR-negative human DU-145 cells assessed as inhibition of cell growth incubated for 48 hrs by CCK-8 assay. The settings on record: DU-145, 48 h. In kind it is functional, cell-based. On the technique in general: Tetrazolium assays rely on reduction of a dye to a coloured formazan, in cell work by metabolically active cells.

Data set [2] has as its system CWR22R. The data set is described as follows: Antitumor activity against human 22Rv1 cells xenografted in NSG mouse assessed as change in tumor volume at 30 mg/kg, IG administered once daily for 21 days. The settings on record: time 21.0 day. In kind it is functional, organism-based.
The nature of data set [3]: Toxicity in NSG mouse xenografted with human 22Rv1 cells assessed as effect on body weight at 30 mg/kg, IG administered once daily for 21 days. In kind it is organism-based, CWR22R. The note with it: in vivo, po, 504 h, time 21 day. Background: Xenograft models place foreign cells or tissue in a host animal.
The nature of data set [4]: Antiproliferative activity against human L02 cells assessed as inhibition of cell growth incubated for 48 hrs by CCK-8 assay. The class given is toxicity, cell-based.
The subject of the next data set is LNCaP. Kind of data set: Antiproliferative activity against human LNCaP cells assessed as inhibition of cell growth incubated for 48 hrs by CCK-8 assay. The class given is functional, cell-based.

The IC50 is the point on the concentration scale where inhibition reaches its midpoint. `CC1(C)C(=O)N(c2ccc([N+](=O)[O-])c(C(F)(F)F)c2)C(=O)N1CC(=O)NCc1cccnc1` gave an IC50 in the data set with CWR22R [1] of more than 50 µM.
With `CC1(C)C(=O)N(c2ccc(C#N)c(C(F)(F)F)c2)C(=O)N1CC(=O)Nc1cccc2cccnc12`, the concentration for half-maximal inhibition (IC50) in the data set with CWR22R [1] came to 23.5 µM.
With `CC1(C)C(=O)N(c2ccc(C#N)c(C(F)(F)F)c2)C(=O)N1CCNc1ccc2cnccc2c1`, the figures for the IC50 with CWR22R [1] and in the data set with DU-145 were 5.1 µM and 33 µM, respectively.
As to `CC1(C)C(=O)N(c2ccc(C#N)c(C(F)(F)F)c2)C(=O)N1CCNc1ccc2ccncc2c1`, the results for the 50% inhibitory concentration (IC50) in the data set with CWR22R [1] and in the data set on DU-145 were 2.3 µM and more than 50 µM, respectively.
With `CC1(C)C(=O)N(c2ccc(C#N)c(C(F)(F)F)c2)C(=O)N1CCNc1ccc([N+](=O)[O-])c2ncccc12`, the values for the IC50 in the data set on CWR22R [1] and in the data set with DU-145 were 3.1 µM and more than 50 µM, respectively.
Take `CC1(C)C(=O)N(c2ccc(C#N)c(C(F)(F)F)c2)C(=O)N1CCNc1cccnc1`: the IC50 with CWR22R [1] stood at 11.9 µM.
In turn, `CC1(C)C(=O)N(c2ccc(C#N)c(C(F)(F)F)c2)C(=O)N1CCNc1ccc2cccnc2c1` showed an IC50 with CWR22R [1] of 2.2 µM.
In the data set on CWR22R [1], `CC1(C)C(=O)N(c2ccc(C#N)c(C(F)(F)F)c2)C(=O)N1CCn1cc(F)cn1` displayed a half-inhibitory concentration (IC50) of 7.9 µM.
Same read-out and setting: the result for `CC1(C)C(=O)N(c2ccc(C#N)c(C(F)(F)F)c2)C(=O)N1CCn1cnc(C(F)(F)F)n1` reads 10.3 µM.
`CC1(C)C(=O)N(c2ccc(C#N)c(C(F)(F)F)c2)C(=O)N1CCNc1ccc2ccccc2c1` had an IC50 with CWR22R [1] of more than 50 µM.
`CC1(C)C(=O)N(c2ccc(C#N)c(C(F)(F)F)c2)C(=O)N1CCn1cc(C(F)(F)F)cn1` had an IC50 in the data set with CWR22R [1] of 8.9 µM.
Take `CC1(C)C(=O)N(c2ccc(C#N)c(C(F)(F)F)c2)C(=O)N1Cn1cc(C(F)(F)F)cn1`: 11.3 µM corresponded to half-maximal inhibition in the data set on CWR22R [1] (IC50).
`CC1(C)C(=O)N(c2ccc(C#N)c(C(F)(F)F)c2)C(=O)N1CCNc1cccc2ccncc12`: the IC50 with CWR22R [1] is 7.8 µM; with DU-145, more than 50 µM.
With `CC1(C)C(=O)N(c2ccc(C#N)c(C(F)(F)F)c2)C(=O)N1Cn1cc(Br)cn1`, the IC50 in the data set with CWR22R [1] stood at 23.2 µM.
`CC1(C)C(=O)N(c2ccc(C#N)c(C(F)(F)F)c2)C(=O)N1CCCNc1ccc2ncccc2c1` returned an IC50 in the data set on CWR22R [1] of 27.3 µM.
Take `CC1(C)C(=O)N(c2ccc(C#N)c(C(F)(F)F)c2)C(=O)N1CCCNc1ccc2ccncc2c1`: the IC50 in the data set with CWR22R [1] was found to be 22 µM.
As to `CNC(=O)c1ccc(N2C(=S)N(c3ccc(C#N)c(C(F)(F)F)c3)C(=O)C2(C)C)cc1F` [ENZALUTAMIDE], in the data set with CWR22R [2], the result was Active. Moreover, in the data set on CWR22R [1], the IC50 is 15.6 µM. Moreover, in data set [3], the Activity result is on record as “Non-Toxic”.
Regarding `CC1(C)C(=O)N(c2ccc(C#N)c(C(F)(F)F)c2)C(=O)N1CCN(c1ccc2cccnc2c1)c1ccc2cccnc2c1`, the IC50 in the data set on CWR22R [1] is more than 50 µM.
On the same count and under the same terms, the result for `CC1(C)C(=O)N(c2ccc(C#N)c(C(F)(F)F)c2)C(=O)N1CC(=O)Nc1ccccn1` reads 17 µM.
In the case of `CC1(C)C(=O)N(c2ccc(C#N)c(C(F)(F)F)c2)C(=O)N1CCNc1cncnc1`, the IC50 in the data set with CWR22R [1] is 43.9 µM.
Still for that read-out and setting: under `CC1(C)C(=O)N(c2ccc(C#N)c(C(F)(F)F)c2)C(=O)N1CCN(c1ccc2nccnc2c1)c1ccc2nccnc2c1` stands 12.2 µM; under `CC1(C)C(=O)N(c2ccc(C#N)c(C(F)(F)F)c2)C(=O)N1CCCNc1cccc2ncccc12`, 25.7 µM.
In the data set with CWR22R [1], `CC1(C)C(=O)N(c2ccc(C#N)c(C(F)(F)F)c2)C(=O)N1CCN(c1ccc(-c2ccncc2)cc1)c1ccc(-c2ccncc2)cc1` registered an IC50 of more than 50 µM.
Turning to `Cc1ccc(NCCN2C(=O)N(c3ccc(C#N)c(C(F)(F)F)c3)C(=O)C2(C)C)c2cccnc12`, the IC50 in the data set with CWR22R [1] is 9.8 µM; in the data set with DU-145, more than 50 µM.
As for `CC1(C)C(=O)N(c2ccc(C#N)c(C(F)(F)F)c2)C(=O)N1CCCn1cc(F)cn1`, the IC50 with CWR22R [1] is 3.7 µM.
With `CC1(C)C(=O)N(c2ccc(C#N)c(C(F)(F)F)c2)C(=O)N1CC(=O)Nc1cccc2ncccc12`, the IC50 in the data set on CWR22R [1] amounted to 24.9 µM.
For the compound `CC1(C)C(=O)N(c2ccc(C#N)c(C(F)(F)F)c2)C(=O)N1CCNc1ccc2ccccc2n1`, it took 11.7 µM to reach half-maximal inhibition in the data set with CWR22R [1] (IC50).
For the compound `CC1(C)C(=O)N(c2ccc(C#N)c(C(F)(F)F)c2)C(=O)N1CCNc1ncccn1`, the IC50 with CWR22R [1] stood at 24.9 µM.
Turning to `CC1(C)C(=O)N(c2ccc(C#N)c(C(F)(F)F)c2)C(=O)N1CCNc1cnc2ccccc2c1`, the 50% inhibitory concentration (IC50) in the data set on CWR22R [1] stood at 49.5 µM.
`CC1(C)C(=O)N(c2ccc(C#N)c(C(F)(F)F)c2)C(=O)N1CC(=O)Nc1ccnc2ccccc12` returned an IC50 with CWR22R [1] of 13.8 µM.
On the same count and under the same terms, under `CC1(C)C(=O)N(c2ccc(C#N)c(C(F)(F)F)c2)C(=O)N1CC(=O)Nc1cccnc1` stands 10.8 µM.
`CC1(C)C(=O)N(c2ccc(C#N)c(C(F)(F)F)c2)C(=O)N1CC(=O)NCc1ccccn1`: the IC50 with CWR22R [1] is 33.7 µM.
In the data set on CWR22R [1], `CC1(C)C(=O)N(c2ccc(C#N)c(C(F)(F)F)c2)C(=O)N1CCNc1ccccn1` returned an IC50 of 13.1 µM.
As for `CC1(C)C(=O)N(c2ccc(C#N)c(C(F)(F)F)c2)C(=O)N1CC(=O)Nc1ccc2ncccc2c1`, the IC50 with CWR22R [1] is 35.8 µM.
For `C[C@]12CC[C@H](O)CC1=CC[C@@H]1[C@@H]2CC[C@]2(C)C(n3cnc4ccccc43)=CC[C@@H]12` [GALETERONE], the figures for the IC50 with CWR22R [1] and in the data set on LNCaP were 11.6 µM and 2 µM, respectively. Also, in data set [4], the IC50 at 48 h is more than 100 µM.
With `CC1(C)C(=O)N(c2ccc(C#N)c(C(F)(F)F)c2)C(=O)N1CCNc1cccc2ccccc12`, the half-maximal inhibitory concentration (IC50) in the data set with CWR22R [1] stood at 19.5 µM.
On the same count and under the same terms, the result for `CC1(C)C(=O)N(c2ccc(C#N)c(C(F)(F)F)c2)C(=O)N1CCNc1cnccn1` reads 10.6 µM; that for `CC1(C)C(=O)N(c2ccc(C#N)c(C(F)(F)F)c2)C(=O)N1CCCn1cc(C(F)(F)F)cn1`, 19.8 µM; that for `CC1(C)C(=O)N(c2ccc(C#N)c(C(F)(F)F)c2)C(=O)N1CCCn1cc(Br)cn1`, 2 µM.
`CC1(C)C(=O)N(c2ccc(C#N)c(C(F)(F)F)c2)C(=O)N1CCN(c1ccc2ncccc2c1)c1ccc2ncccc2c1`: the IC50 with CWR22R [1] was determined as 6.8 µM.
For the compound `CC1(C)C(=O)N(c2ccc(C#N)c(C(F)(F)F)c2)C(=O)N1CCCNc1cccc2ccncc12`, in the data set with CWR22R [1], half-maximal inhibition (IC50) was put at 21.8 µM.
In the case of `C[C@]12CC[C@H](O)CC1=CC[C@@H]1[C@@H]2CC[C@]2(C)C(c3cccnc3)=CC[C@@H]12` [ABIRATERONE], in the data set on CWR22R [2], the outcome was Active. The Activity entry in data set [3] is recorded as “Non-Toxic”.
With `N#Cc1ccc(O[C@H]2CC[C@H](NC(=O)c3ccc(N4CCC(CN5CCN(c6cc7c(cc6F)C(=O)N(C6CCC(=O)NC6=O)C7=O)CC5)CC4)nn3)CC2)cc1Cl` (stereo not given in full) [BAVDEGALUTAMIDE], in the data set with CWR22R [1], the IC50 worked out at 3.9 µM.
`CC1(C)C(=O)N(c2ccc([N+](=O)[O-])c(C(F)(F)F)c2)C(=O)N1CC(=O)NCc1ccccn1`: in the data set with CWR22R [1], the concentration for half-maximal inhibition (IC50) came out at 26 µM.
For the compound `CC1(C)C(=O)N(c2ccc(C#N)c(C(F)(F)F)c2)C(=O)N1CC(=O)NCc1cccnc1`, the IC50 with CWR22R [1] stood at 22.1 µM.
On to `CC1(C)C(=O)N(c2ccc(C#N)c(C(F)(F)F)c2)C(=O)N1CCNc1ccc(C#N)c2ncccc12`, for which the half-inhibitory concentration (IC50) in the data set with CWR22R [1] was 2.8 µM; in the data set on DU-145, more than 50 µM.
Compound `CC1(C)C(=O)N(c2ccc(C#N)c(C(F)(F)F)c2)C(=O)N1CC(=O)Nc1cnc2ccccc2c1` returned an IC50 in the data set with CWR22R [1] of 14.6 µM.
Regarding `CC1(C)C(=O)N(c2ccc(C#N)c(C(F)(F)F)c2)C(=O)N1CCNc1cccc2ncccc12`, the 50% inhibitory concentration (IC50) in the data set on CWR22R [1] turned out to be 1.3 µM.
On the same count and under the same terms, the result for `CC1(C)C(=O)N(c2ccc(C#N)c(C(F)(F)F)c2)C(=O)N1CCn1cc(Br)cn1` reads 46.3 µM.
Compound `CC1(C)C(=O)N(c2ccc(C#N)c(C(F)(F)F)c2)C(=O)N1CCN(c1ccc2ncncc2c1)c1ccc2ncncc2c1` came in with an IC50 in the data set on CWR22R [1] of 15 µM.
`CC1(C)C(=O)N(c2ccc(C#N)c(C(F)(F)F)c2)C(=O)N1CCNc1cccc2cccnc12` returned an IC50 in the data set with CWR22R [1] of more than 50 µM.
On the same count and under the same terms, under `CC1(C)C(=O)N(c2ccc(C#N)c(C(F)(F)F)c2)C(=O)N1CCNc1ccc2ncccc2c1` stands 5.4 µM; under `CC1(C)C(=O)N(c2ccc([N+](=O)[O-])c(C(F)(F)F)c2)C(=O)N1CC(=O)Nc1ccccn1`, more than 50 µM; under `Cc1ccc(NCCCN2C(=O)N(c3ccc(C#N)c(C(F)(F)F)c3)C(=O)C2(C)C)c2cccnc12`, 36.8 µM.
For `CC1(C)C(=O)N(c2ccc(C#N)c(C(F)(F)F)c2)C(=O)N1CCNc1ccnc2ccccc12`, inhibition with CWR22R [1] was half-maximal at 8.7 µM (IC50).
On the same count and under the same terms, under `CC(C)(c1ccc(OC[C@H](O)CO)cc1)c1ccc(OC[C@H](O)CCl)cc1` stands 40.4 µM.
On the same count and under the same terms, the result for `CC1(C)C(=O)N(c2ccc(C#N)c(C(F)(F)F)c2)C(=O)N1Cn1cc(F)cn1` reads 14.5 µM; that for `CC1(C)C(=O)N(c2ccc(C#N)c(C(F)(F)F)c2)C(=O)N1CCCn1ccc2cc(F)ccc21`, 13.6 µM.
`CC1(C)C(=O)N(c2ccc([N+](=O)[O-])c(C(F)(F)F)c2)C(=O)N1CC(=O)Nc1cccnc1` gave an IC50 in the data set on CWR22R [1] of more than 50 µM.
